# Tests used:
# Test in all cases: relative viability (nuclei count vs DMSO), 5 days (fraction); higher = more cells survive
# [1] = compound: CCN1C(=O)C2=CC(=C(N=C2N(C1=O)C3CC3)N)C(=O)N + CS(=O)(=O)N1CCN(Cc2cc3nc(-c4cccc5[nH]ncc45)nc(N4CCOCC4)c3s2)CC1 [Pictilisib] (partner 1 µM)
# Summary of the method: (§1)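 The day after seeding in 1536-well plates, lung cancer cell lines were treated by pin tool with a single drug, or with a fixed anchor-drug dose together with five library-drug doses (not always all listed) in √10 steps. After 5 days, a combined fix-and-stain solution (final 0.05% Triton X-100, 1% formaldehyde, 1 ug/ml Hoechst) was added. Nuclei counted on 4× images gave relative viability as treated counts over vehicle counts, reported as the median of duplicate plates.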
# [2] = compound: CCN1C(=O)C2=CC(=C(N=C2N(C1=O)C3CC3)N)C(=O)N + CS(=O)(=O)CCNCc1ccc(-c2ccc3ncnc(Nc4ccc(OCc5cccc(F)c5)c(Cl)c4)c3c2)o1 [Lapatinib] (partner 2 µM)
# Summary of the method: as §1
# [3] = compound: CCN1C(=O)C2=CC(=C(N=C2N(C1=O)C3CC3)N)C(=O)N + CC(=O)c1c(C)c2cnc(Nc3ccc(N4CCNCC4)cn3)nc2n(C2CCCC2)c1=O [Palbociclib] (partner 0.5 µM)
# Summary of the method: as §1
# [4] = compound: CCN1C(=O)C2=CC(=C(N=C2N(C1=O)C3CC3)N)C(=O)N + Nc1nc2[nH]cc(CCc3ccc(C(=O)N[C@@H](CCC(=O)O)C(=O)O)cc3)c2c(=O)[nH]1 [Pemetrexed] (partner 0.2 µM)
# Summary of the method: as §1
# [5] = compound: CCN1C(=O)C2=CC(=C(N=C2N(C1=O)C3CC3)N)C(=O)N + CC(C)C[C@H](NC(=O)[C@H](Cc1ccccc1)NC(=O)c1cnccn1)B(O)O [Bortezomib] (partner 0.002 µM)
# Summary of the method: as §1
Cell Line,relative viability ([1]; first compound 0.253 µM),relative viability ([1]; first compound 0.8 µM),relative viability ([1]; first compound 2.53 µM),relative viability ([1]; first compound 8 µM),relative viability ([2]; first compound 0.253 µM),relative viability ([2]; first compound 0.8 µM),relative viability ([2]; first compound 2.53 µM),relative viability ([2]; first compound 8 µM),relative viability ([3]; first compound 0.253 µM),relative viability ([3]; first compound 0.8 µM),relative viability ([3]; first compound 2.53 µM),relative viability ([3]; first compound 8 µM),relative viability ([4]; first compound 0.253 µM),relative viability ([4]; first compound 0.8 µM),relative viability ([4]; first compound 2.53 µM),relative viability ([4]; first compound 8 µM),relative viability ([5]; first compound 0.253 µM),relative viability ([5]; first compound 0.8 µM),relative viability ([5]; first compound 2.53 µM),relative viability ([5]; first compound 8 µM)
201T,0.688,0.621,0.722,0.635,1.03,0.949,0.967,0.98,0.392,0.348,0.38,0.369,0.328,0.309,0.34,0.313,1.1,1.07,1.09,1.05
A549,0.557,0.553,0.41,0.592,0.981,0.914,0.94,1.1,,,,,,,,,,,,
A-427,0.724,0.578,0.645,0.727,1.06,0.963,1.05,1.01,0.497,0.522,0.486,0.535,0.952,0.927,1.08,0.927,0.938,0.963,0.965,0.956
ABC-1,0.761,0.667,0.82,0.699,1.08,1.4,0.969,1.29,0.819,,0.709,0.799,,,,,0.298,0.325,0.312,0.266
BEN,0.539,0.522,0.62,0.519,0.776,0.638,0.827,0.697,0.448,0.478,0.411,0.456,0.896,0.842,0.929,0.699,0.951,0.68,1.1,0.697
CAL-12T,0.431,,0.437,0.541,0.528,,0.716,0.859,0.452,0.448,0.475,0.418,1.02,1.31,1.06,1.15,1.11,,1.09,1.08
COR-L23,0.814,0.751,0.729,0.947,0.927,1.03,0.745,1.04,0.355,0.334,0.322,0.266,0.188,0.202,0.191,0.213,1,0.944,1.12,0.95
COR-L 105,0.453,0.366,0.412,0.369,0.308,0.339,0.424,0.398,0.377,0.431,0.397,0.366,0.941,1.01,0.991,1.16,0.866,0.709,0.856,0.738
ChaGo-K-1,0.916,0.563,0.91,0.766,,,,,0.898,0.97,0.897,0.99,0.272,0.264,0.263,0.246,1.12,0.87,1.1,1.1
EKVX,0.439,0.411,0.388,0.438,0.23,0.25,0.222,0.196,0.63,0.471,0.401,0.348,0.397,0.414,0.282,0.351,1.18,1.14,1.07,0.901
EMC-BAC-2,0.642,0.536,0.456,0.584,0.937,0.849,0.859,0.888,0.543,,0.47,0.468,0.461,,0.403,0.431,1.12,1.04,0.9,1.06
EPLC-272H,0.296,0.288,0.389,0.333,0.834,0.867,0.932,1.13,0.309,0.358,0.331,0.358,,0.265,0.301,0.368,0.828,0.75,0.827,1
H3255,0.509,0.47,0.504,0.513,0.246,0.216,0.192,0.258,0.321,0.335,0.327,0.279,0.588,0.555,0.536,0.558,0.866,0.565,0.934,0.706
HARA,0.403,0.36,0.379,0.486,0.809,0.688,0.839,0.69,0.265,0.32,0.195,0.229,0.223,0.232,0.246,0.216,1.18,1.12,1.11,1.15
HCC-15,0.699,0.79,0.793,0.801,0.816,0.903,0.782,0.859,0.764,0.731,0.675,0.712,0.231,0.221,0.2,0.235,0.992,1.11,0.979,1
HCC-44,0.599,0.6,0.564,0.641,0.927,1.01,1.03,0.986,0.998,0.912,0.972,1,0.588,0.641,0.613,0.668,0.896,0.895,0.879,0.877

Cell Line,relative viability ([1]; first compound 0.253 µM),relative viability ([1]; first compound 0.8 µM),relative viability ([1]; first compound 2.53 µM),relative viability ([1]; first compound 8 µM),relative viability ([2]; first compound 0.253 µM),relative viability ([2]; first compound 0.8 µM),relative viability ([2]; first compound 2.53 µM),relative viability ([2]; first compound 8 µM),relative viability ([3]; first compound 0.253 µM),relative viability ([3]; first compound 0.8 µM),relative viability ([3]; first compound 2.53 µM),relative viability ([3]; first compound 8 µM),relative viability ([4]; first compound 0.253 µM),relative viability ([4]; first compound 0.8 µM),relative viability ([4]; first compound 2.53 µM),relative viability ([4]; first compound 8 µM),relative viability ([5]; first compound 0.253 µM),relative viability ([5]; first compound 0.8 µM),relative viability ([5]; first compound 2.53 µM),relative viability ([5]; first compound 8 µM)
HCC-78,0.223,0.173,0.201,0.205,0.581,0.626,0.937,0.719,0.472,0.463,0.509,0.449,0.866,0.949,0.813,0.842,0.293,0.479,0.463,0.516
HCC-366,0.168,0.162,0.0835,0.11,1.06,0.966,0.988,1.05,0.334,0.403,0.378,0.417,0.167,0.17,0.155,0.163,1.03,1,1,0.997
LCLC-103H,0.57,0.581,0.501,0.582,,,,,0.446,0.481,0.479,0.456,0.46,0.461,0.46,0.453,1.07,0.981,1.05,1.05
LK-2,0.547,0.507,0.525,0.556,0.89,0.878,0.995,1.09,0.705,0.565,0.683,0.974,0.3,0.286,0.303,0.301,,,,
NCI-H358,0.4,0.343,0.284,0.424,0.424,0.417,0.526,0.612,0.122,0.134,0.127,0.14,0.172,0.181,0.188,0.164,,,,
NCI-H441,0.561,0.48,0.462,0.576,,,,,0.22,0.231,0.224,0.244,0.272,0.246,0.263,0.26,0.464,0.421,0.456,0.775
NCI-H522,,,,,,,,,0.954,0.966,0.794,1.1,1.1,0.976,0.792,0.926,,,,
NCI-H596,0.449,0.36,0.454,0.403,1.07,1.02,1.09,1.06,,,,,0.465,0.507,0.573,0.497,,0.807,1.11,1.01
NCI-H727,0.441,0.375,0.428,0.508,0.925,0.69,0.814,0.857,0.642,0.616,0.605,0.553,,,,,0.806,0.843,0.805,0.875
NCI-H1395,0.611,0.583,0.636,0.63,1.04,0.915,1.1,0.893,0.707,0.694,0.603,0.578,0.922,0.811,0.979,0.816,,,,
NCI-H1703,0.243,0.224,0.275,0.269,1.01,0.946,1.09,1.43,,,,,,,,,0.384,0.383,0.34,0.374
NCI-H1793,0.267,0.308,,0.303,0.635,0.819,,0.636,0.258,0.322,0.27,0.3,0.915,0.925,0.805,0.861,,,,
NCI-H1944,0.354,0.354,0.342,0.308,0.873,0.679,0.818,0.756,0.421,0.324,0.33,0.365,0.64,0.589,0.615,0.624,,,,
NCI-H2170,0.297,0.326,0.295,0.335,0.253,0.257,0.263,0.255,0.385,0.389,0.395,0.363,0.271,0.289,0.28,0.251,,,,
NCI-H2342,,,,,,,,,0.549,0.533,0.426,0.461,0.781,0.746,0.802,0.817,,,,
SK-MES-1,0.358,0.403,0.323,0.37,0.478,0.485,0.451,0.492,0.362,0.285,0.324,0.282,0.981,0.911,0.858,0.882,,,,
